{
  "source": "patent US5260271A",
  "about": "“Nisin compositions for use as enhanced broad range bactericides” (Applied Microbiology, Inc., priority 1992, dated 1993)",
  "key": {"[1]": {"tested_on": "S. typhimurium on chicken muscle", "experiment": "Bactericidal activity towards S. typhimurium on chicken muscle (unadhered cells)", "type": "cell-based, Salmonella typhimurium", "conditions": "chicken muscle, EDTA 0 mM", "protocol": "Incubations were performed in either 50 mM sodium acetate, pH 5.0, or 20 mM Tris, pH 8.0 at 37° C.\nCubes of chicken muscle were cleansed with sodium hypochlorite and povidone iodine prior to use. To inoculate the tissue, the cubes of chicken muscle were dipped into a 10^8 cells/ml suspension of S. typhimurium in 20 mM Tris HCl, pH 8.0. Excess moisture was removed from dipped cubes by tapping. The chicken samples were placed into sufficient buffer containing the nisin composition to cover the tissue and incubated for 2 hours at 37° C. after which the tissue was removed to sufficient Phage buffer to cover the tissue. The bacteria remaining in the test solution were collected by centrifugation, washed with Phage buffer, and combined with bacteria washed from the tissue by Phage buffer. The combined samples (termed \"unadhered\" cells) were serially diluted and 100 μl aliquots were plated for determination of surviving bacteria.\n(§1) Cubes of chicken muscle were cleansed with sodium hypochlorite and povidone iodine prior to use. To inoculate the tissue, the cubes of chicken muscle were dipped into a 10^8 cells/ml suspension of S. typhimurium in 20 mM Tris HCl, pH 8.0. Excess moisture was removed from dipped cubes by tapping. The tissue was placed into sufficient buffer containing the nisin compositions to cover the tissue, and incubated for 2 hours at 37° C. after which the tissue was removed to sufficient Phage buffer to cover the tissue. The bacteria remaining in the test solution were collected by centrifugation, washed with Phage buffer, and combined with bacteria washed from the tissue by Phage buffer. The combined samples (termed \"unadhered\" cells) were serially diluted and 100 μl aliquots were plated for determination of surviving bacteria.\nas §1, with “cleaned” for “cleansed”, “50” for “20”, “sodium acetate buffer,” for “Tris HCl,”, “5.0.” for “8.0.”, “containing” for “containing the”"}, "Listeria monocytogenes [2]": {"tested_on": "Listeria monocytogenes", "experiment": "Bactericidal activity towards Listeria monocytogenes in milk", "type": "cell-based", "conditions": "L. monocytogenes in milk at 37° C.; Nisin 100 μg/ml, Monooleate 0%", "protocol": "(§2) All tests in the following examples were performed at 37° C. The efficacy of the enhanced broad range bactericides was determined by assaying bactericidal activity as measured by the percent bacterial survival after treatment with the bactericide. Generally, after incubation of a 10^7 cell per ml suspension of target species with the novel bactericide for specified lengths of time, bacteria were collected by centrifugation for 2 minutes. […] Surviving bacteria were determined by scoring colony forming units (CFU) after incubation for 24-48 hours at 37° C. An effective bactericide according to this invention is one which allows less than 0.1% of the initial viable count of the bacteria to survive.\nAn example of where the application of nisin is limited by its available activity is illustrated by the data in Table 15B.\n(§3) Incubations were in milk at 37° C."}, "Streptococcus mutans [3]": {"tested_on": "Streptococcus mutans", "experiment": "Rapid bactericidal activity towards Streptococcus mutans in the presence of divalent cation, 10% Fetal Calf Serum", "type": "cell-based", "conditions": "S. mutans, Nisin 3, no EDTA, 0 mM", "method": "(§5) All tests in the following examples were performed at 37° C. The efficacy of the enhanced broad range bactericides was determined by assaying bactericidal activity as measured by the percent bacterial survival after treatment with the bactericide. Generally, after incubation of a 10^7 cell per ml suspension of target species with the novel bactericide for specified lengths of time, bacteria were collected by centrifugation for 2 minutes. The bacterial pellet was washed free of the bactericide with a rescue buffer, termed herein Phage buffer (50mM Tris-HCl buffer pH 7.8, 1 mM MgSO4, 4 mM CaCl2, 0.1 M Nacl, and 0.1% gelatin), resuspended and serially diluted into Phage buffer, and 100 μl of the suspended bacteria were spread on nutrient agar plates. Surviving bacteria were determined by scoring colony forming units (CFU) after incubation for 24-48 hours at 37° C.\nIncubations performed in 10% Fetal Calf Serum at 37° C."}, "E. coli": {"tested_on": "E. coli", "experiment": "Bactericidal activity, percent bacterial survival of E. coli suspension", "type": "cell-based, Escherichia coli", "conditions": "EDTA 0 mM, Triton X-100 0%, 20 mM Tris pH 8.0", "protocol": "as §2, with “C.” for “C. An effective bactericide according to this invention is one which allows less than 0.1% of the initial viable count of the bacteria to survive.”\nThe effects of the bactericide were measured as a function of percentage bacteria survival after 2 hours.\nIncubations were performed in 20 mM Tris, […] at 37° C."}, "Streptococcus agalactiae": {"tested_on": "Streptococcus agalactiae", "experiment": "Bactericidal activity towards Streptococcus agalactiae in milk", "type": "cell-based", "conditions": "for % survival at 2h: S. agalactiae in milk at 37° C., Monolaurin 0%", "protocol": "as §2\nHowever, the combination of the two agents, 0.1% monolaurin and nisin 0.2 μg/ml, is extremely potent towards S. agalactiae. […] Thus, when the application of nisin is limited by its available activity, a bactericide comprising nisin with a surfactant can be expected to be more useful.\nas §3"}, "Streptococcus mutans [4]": {"tested_on": "Streptococcus mutans", "experiment": "Bactericidal activity and kinetics towards Streptococcus mutans in Tris buffer", "type": "cell-based", "conditions": "S. mutans; pH 8.0, Nisin 0.1 μg/ml, EDTA 0 mM", "method": "as §5\nThe suspensions were incubated for various times ranging from 0.5 to 60 minutes with the bactericides.\nIncubations were performed in 20 mM TrisHCl, pH 7.3 at 37° C."}, "S. typhimurium": {"tested_on": "S. typhimurium", "experiment": "Bactericidal activity, percent bacterial survival of S. typhimurium suspension", "type": "cell-based, Salmonella typhimurium", "conditions": "for Percentage S. typhimurium Survival at 3 hours / % Survival at 2 hours: EDTA 0 mM", "protocol": "as §2, with “C.” for “C. An effective bactericide according to this invention is one which allows less than 0.1% of the initial viable count of the bacteria to survive.”\nThe control (Test #1) is identical to the control of Example 1 (Table 1)."}, "Staphylococcus aureus": {"tested_on": "Staphylococcus aureus", "experiment": "Bactericidal activity towards Staphylococcus aureus, percent survival", "type": "cell-based", "conditions": "S. aureus, EDTA 0 mM", "protocol": "as §2\nIncubations were performed in 50 mM sodium acetate buffer, pH 5.0 or 20 m\nTrisHCl buffer, pH 8.0 at 37° C."}, "Coryneform bacteria": {"tested_on": "Coryneform bacteria", "experiment": "Bactericidal activity towards Coryneform bacteria", "type": "cell-based", "conditions": "pH 8.0, Nisin 3 μg/ml, EDTA 0 mM", "protocol": "as §2\n(§4) Incubations were performed in 20 mM TrisHCl, pH 8.0 at 37° C."}, "Listeria monocytogenes [5]": {"tested_on": "Listeria monocytogenes", "experiment": "Bactericidal activity towards Listeria monocytogenes in Tris buffer", "type": "cell-based", "conditions": "L. monocytogenes; pH 8.0, Nisin 3.0 μg/ml, EDTA 0 mM", "protocol": "as §2, §4"}, "K. pneumoniae": {"tested_on": "K. pneumoniae", "experiment": "Bactericidal activity, percent bacterial survival of K. pneumoniae suspension", "type": "cell-based, Klebsiella pneumoniae", "conditions": "EDTA 0 mM, 20 mM Tris pH 8.0", "protocol": "as §2, with “C.” for “C. An effective bactericide according to this invention is one which allows less than 0.1% of the initial viable count of the bacteria to survive.”\nThe effect was measured as a function of percentage bacterial survival after 2 hours."}},
  "note": "Where no end group is shown, it is not given here.",
  "data": [
    {"substance": "Nisin (ITSISLCTPGCKTGALMGCNMKTATCHCSIHVSK; not fully specified (residues 2, 5, 33, bridges); cysteine pairing not given here; UniProt P13068 24-57, looked up) [polypeptide bacteriocin with antimicrobial properties produced by strains of Streptococcus lactis; known food preservative]", "values": [
      {"measurement": "% Survival at 2 hours (Unadhered cells)", "setting": "[1]; pH 5.0, Nisin 300 μg/ml", "result": 0.1, "unit": "%"},
      {"measurement": "% Survival at 2 hours (Unadhered cells)", "setting": "[1]; pH 8.0, Nisin 300 μg/ml, 1% Bovine serum albumin", "result": 0.02, "unit": "%"},
      {"measurement": "% Survival at 2 hours (Unadhered cells)", "setting": "[1]; pH 8.0, Nisin 300 μg/ml", "result": 7.5, "unit": "%"},
      {"measurement": "% Survival 2 hr", "setting": "Listeria monocytogenes [2]", "result": 0.56, "unit": "%"},
      {"measurement": "% survival at 1 min.", "setting": "Streptococcus mutans [3]", "result": 2.9, "unit": "%"},
      {"measurement": "Percentage E. coli Survival at 2 hours", "setting": "E. coli; Nisin 30 μg/ml", "result": 27, "unit": "%"},
      {"measurement": "Percentage E. coli Survival at 2 hours", "setting": "E. coli; Nisin 100 μg/ml", "result": 25, "unit": "%"},
      {"measurement": "Percentage E. coli Survival at 2 hours", "setting": "E. coli; Nisin 300 μg/ml", "result": 8.5, "unit": "%"},
      {"measurement": "% survival at 2h", "setting": "Streptococcus agalactiae; Nisin 0.02 μg/ml", "result": 100, "unit": "%"},
      {"measurement": "% survival at 2h", "setting": "Streptococcus agalactiae; Nisin 0.2 μg/ml", "result": 2.2, "unit": "%"},
      {"measurement": "bactericidal activity towards Streptococcus agalactiae", "setting": "Streptococcus agalactiae; nisin at concentrations up to 0.2 μg/ml, in milk", "result": "does not exhibit significant bactericidal activity"},
      {"measurement": "% Survival after 2 hr", "setting": "Streptococcus mutans [4]", "result": 4.3, "unit": "%"},
      {"measurement": "Percentage S. typhimurium Survival at 3 hours", "setting": "S. typhimurium; Nisin 50 µg/ml, 20 mM Tris pH 8.0, 37° C", "result": 7.0, "unit": "%"},
      {"measurement": "Percentage S. typhimurium Survival at 3 hours", "setting": "S. typhimurium; Nisin 100 µg/ml, 20 mM Tris pH 8.0, 37° C", "result": 1.6, "unit": "%"},
      {"measurement": "Percentage S. typhimurium Survival at 3 hours", "setting": "S. typhimurium; Nisin […], 20 mM Tris pH 8.0, 37° C", "result": 51.3, "unit": "%"},
      {"measurement": "survival", "setting": "S. typhimurium; S. typhimurium, 100 μg/ml nisin in the absence of EDTA, 20 mM Tris pH 8.0", "result": 1.6, "unit": "%"},
      {"measurement": "% Survival at 2 hours", "setting": "S. typhimurium; S. typhimurium, pH 5.0, Nisin 100 μg/ml", "result": 0.6, "unit": "%"},
      {"measurement": "% Survival at 2 hours", "setting": "S. typhimurium; S. typhimurium, pH 8.0, Nisin 100 μg/ml", "result": 4, "unit": "%"},
      {"measurement": "Percentage S. typhimurium Survival at 3 hours", "setting": "S. typhimurium; Table 2: Nisin 10 μg/ml, Triton X-100 0%, 20 mM Tris pH 8.0", "result": 51.3, "unit": "%"},
      {"measurement": "Percentage S. typhimurium Survival at 3 hours", "setting": "S. typhimurium; Table 2: Nisin 50 μg/ml, Triton X-100 0%, 20 mM Tris pH 8.0", "result": 7.0, "unit": "%"},
      {"measurement": "Percentage S. typhimurium Survival at 3 hours", "setting": "S. typhimurium; Table 2: Nisin 100 μg/ml, Triton X-100 0%, 20 mM Tris pH 8.0", "result": 1.6, "unit": "%"},
      {"measurement": "Percentage S. typhimurium Survival at 3 hours", "setting": "S. typhimurium; Table 3: Nisin 10 μg/ml, Tween20 0%, 20 mM Tris pH 8.0", "result": 51.3, "unit": "%"},
      {"measurement": "Percentage S. typhimurium Survival at 3 hours", "setting": "S. typhimurium; Table 3: Nisin 50 μg/ml, Tween20 0%, 20 mM Tris pH 8.0", "result": 7.0, "unit": "%"},
      {"measurement": "Percentage S. typhimurium Survival at 3 hours", "setting": "S. typhimurium; Table 3: Nisin 100 μg/ml, Tween20 0%, 20 mM Tris pH 8.0", "result": 1.6, "unit": "%"},
      {"measurement": "% Survival at 2 hours", "setting": "S. typhimurium; Table 8, S. typhimurium, Nisin 100 μg/ml, BSA 0%, Tris buffer", "result": 1.6, "unit": "%"},
      {"measurement": "% Survival 2 hr", "setting": "Staphylococcus aureus; pH 5.0, Nisin 3.0 μg/ml", "result": 0.6, "unit": "%"},
      {"measurement": "% Survival 2 hr", "setting": "Staphylococcus aureus; pH 8.0, Nisin 3.0 μg/ml", "result": 7.4, "unit": "%"},
      {"measurement": "% Survival 2 hr", "setting": "Coryneform bacteria", "result": 0.22, "unit": "%"},
      {"measurement": "% Survival after 2 hr", "setting": "Listeria monocytogenes [5]", "result": 0.71, "unit": "%"},
      {"measurement": "% Survival at 2 hours", "setting": "K. pneumoniae; Nisin 100 μg/ml", "result": 50, "unit": "%"},
      {"measurement": "% Survival at 2 hours", "setting": "K. pneumoniae; Nisin 300 μg/ml", "result": 38, "unit": "%"}
    ]}
  ]
}
